Test results from patent publication US20130143929A1, “FUNGICIDAL IMIDAZOLES” (EI DU PONT DE NEMOURS AND COMPANY, priority 2010, published 2013).
Marks after values point to notes of the source that are not given here.

Tests used:
Type in all cases: in vivo
[1] = test system: Botrytis cinerea (the causal agent of tomato Botrytis); experiment: Test C: tomato Botrytis, preventive spray on tomato seedlings, visual disease rating; settings: tomato Botrytis, preventive spray on tomato seedlings
Outline: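 Test suspension (acetone/water with 250 ppm Trem 014; 200 ppm equivalent to 800 g/ha) sprayed to run-off on tomato seedlings; B. cinerea spores inoculated next day. After 48 h saturated humidity at 20° C then 3 days at 24° C, disease rated visually as % control relative to untreated controls (0–100).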

[2] = test system: Septoria tritici (the causal agent of wheat leaf blotch); experiment: Test B: wheat leaf blotch, preventive spray on wheat seedlings, visual disease rating; settings: wheat leaf blotch, preventive spray on wheat seedlings
Outline: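 Wheat seedlings sprayed to run-off with compound suspension (acetone/water with 250 ppm Trem 014; 200 ppm ≈ 800 g/ha, some at 40 ppm), inoculated next day with Septoria tritici spores. 48 h saturated humidity at 24 °C, then 19 days at 20 °C; visual rating, 100 = full control.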

[3] = test system: Blumeria graminis f. sp. tritici (also known as Erysiphe graminis f. sp. tritici, the causal agent of wheat powdery mildew); experiment: Test D: wheat powdery mildew, preventive spray on wheat seedlings, visual disease rating; settings: wheat powdery mildew, preventive spray on wheat seedlings
Outline: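 Compound suspended in acetone/water (50/50) with 250 ppm Trem 014 and sprayed to run-off on wheat seedlings (200 ppm ≈ 800 g/ha), then inoculated next day with spore dust. Disease rated visually after 8 days at 20 °C as % control relative to untreated plants (0-100).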

[4] = test system: Puccinia recondite f. sp. tritici (the causal agent of wheat leaf rust); experiment: Test A: wheat leaf rust, preventive spray on wheat seedlings, visual disease rating; settings: wheat leaf rust, preventive spray on wheat seedlings
Outline: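 Wheat seedlings were sprayed to run-off with compound suspended in acetone/water containing 250 ppm Trem 014 (200 ppm ≈ 800 g/ha; some at 40 ppm). Puccinia recondite spores were inoculated the next day. Plants were held 24 h saturated at 20° C, then 7 days at 20° C, and disease control was rated visually on a 0–100 scale against controls.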

[5] = no asterisk (standard test suspension concentration, not 40 ppm)
[6] = asterisk: 40 ppm test suspension

Compound | Test C rating (100 = 100% disease control, 0 = no disease control relative to the controls) [1, 5] [%] | Test B rating (100 = 100% disease control, 0 = no disease control relative to the controls) [2, 5] [%] | Test D rating (100 = 100% disease control, 0 = no disease control relative to the controls) [3, 5] [%] | Test A rating (100 = 100% disease control, 0 = no disease control relative to the controls) [4, 5] [%] | Test C rating (100 = 100% disease control, 0 = no disease control relative to the controls) [1, 6] | Test B rating (100 = 100% disease control, 0 = no disease control relative to the controls) [2, 6] | Test D rating (100 = 100% disease control, 0 = no disease control relative to the controls) [3, 6] | Test A rating (100 = 100% disease control, 0 = no disease control relative to the controls) [4, 6]
Cc1ncc(C(O)c2ccc(F)cc2Cl)n1-c1c(F)cccc1Br (stereo not shown) [compound 73] | 99 | 100 | 0 | 100 |  |  |  | 
Cc1ncc(C(O)c2ccc(F)cc2Cl)n1-c1c(F)cc(F)cc1Br (stereo not shown) [compound 74] | 100 | 100 | 0 | 100 |  |  |  | 
OC(c1ccc(F)cc1Cl)c1cnc(C2CC2)n1-c1c(F)cccc1Br (stereo not shown) [compound 75] | 0 | 1 | 0 | 94 |  |  |  | 
Cc1nc(Cl)c(C(O)c2ccc(F)cc2Cl)n1-c1c(F)cc(Br)cc1F (stereo not shown) [compound 76] |  |  |  |  | 0* % | 100* % | 0* % | 99* %
Cc1cc(F)ccc1C(O)c1c(Cl)nc(Cl)n1-c1ccc(F)cc1F (stereo not shown) [compound 77] | 94 | 100 | 95 | 100 |  |  |  | 
Cc1cc(F)ccc1C(O)c1cnc(C)n1-c1c(F)cccc1F (stereo not shown) [compound 80] | 0 | 100 | 0 | 99 |  |  |  | 
Cc1nc(Cl)n(-c2c(F)cc(F)cc2F)c1C(O)c1ccc(F)cc1F (stereo not shown) [compound 83] |  |  |  |  | 99* % | 100* % | 100* % | 100* %
Cc1cc(F)ccc1C(O)c1c(Br)nc(C)n1-c1c(F)cccc1F (stereo not shown) [compound 88] | 96 | 100 | 90 | 99 |  |  |  | 
OC(c1c(F)cc(F)cc1F)c1c(Cl)nc(Cl)n1-c1ccc(Cl)cc1Cl (stereo not shown) [compound 90] | 98 | 100 | 99 | 100 |  |  |  | 
Cc1cc(F)ccc1C(O)c1c(Cl)nc(C)n1-c1c(F)cccc1F (stereo not shown) [compound 91] | 98 | 100 | 94 | 100 |  |  |  | 
Cc1nc(Cl)c(C(O)c2ccc(F)cc2F)n1-c1c(F)cc(F)cc1Br (stereo not shown) [compound 92] | 99 | 100 | 95 | 100 |  |  |  | 
Cc1ncc(C(O)c2ccc(F)cc2Br)n1-c1c(F)cc(F)cc1Br (stereo not shown) [compound 94] | 99 | 100 | 56 | 100 |  |  |  | 
OC(c1ccc(F)cc1Br)c1cnc(C2CC2)n1-c1c(F)cccc1Br (stereo not shown) [compound 95] | 0 | 0 | 0 | 0 |  |  |  | 
OC(c1ccc(F)cc1F)c1c(Br)ncn1-c1c(F)cccc1F (stereo not shown) [compound 96] |  |  |  |  | 40* % | 100* % | 0* % | 68* %
Cc1ncc(C(O)c2ccc(F)cc2F)n1-c1c(F)cccc1F (stereo not shown) [compound 97] |  |  |  |  | 0* % | 100* % | 0* % | 95* %
Cc1nc(Cl)c(C(O)c2ccc(F)cc2Cl)n1-c1c(F)cccc1F (stereo not shown) [compound 98] |  |  |  |  | 100* % | 100* % | 99* % | 100* %
Cc1nc(Br)c(C(O)c2ccc(F)cc2Cl)n1-c1c(F)cccc1F (stereo not shown) [compound 99] |  |  |  |  | 99* % | 100* % | 98* % | 100* %
Cc1nc(Cl)c(C(O)c2c(F)cc(F)cc2F)n1-c1c(F)cccc1F (stereo not shown) [compound 100] |  |  |  |  | 97* % | 100* % | 82* % | 100* %
Cc1cc(F)ccc1C(O)c1c(C)nc(Cl)n1-c1ccc(F)cc1F (stereo not shown) [compound 104] | 99 | 100 | 97 | 100 |  |  |  | 
Cc1nc(Cl)c(C(O)c2c(F)cccc2F)n1-c1c(F)cccc1F (stereo not shown) [compound 105] |  |  |  |  | 85* % | 100* % | 64* % | 99* %
Cc1nc(Br)c(C(O)c2c(F)cccc2F)n1-c1c(F)cccc1F (stereo not shown) [compound 106] |  |  |  |  | 91* % | 100* % | 43* % | 99* %
OC(c1ccc(F)cc1F)c1c(Br)nc(Br)n1-c1c(F)cc(F)cc1Cl (stereo not shown) [compound 107] | 100 | 100 | 94 | 100 |  |  |  | 
OC(c1ccc(F)cc1F)c1c(Br)nc(Cl)n1-c1c(F)cc(F)cc1Cl (stereo not shown) [compound 108] |  |  |  |  | 67* % | 100* % | 99* % | 100* %
Cc1cc(F)ccc1C(O)c1cnc(C)n1-c1c(F)cc(Cl)cc1F (stereo not shown) [compound 109] |  |  |  |  | 0* % | 94* % | 0* % | 99* %
Cc1cc(F)ccc1C(O)c1c(Br)nc(C)n1-c1c(F)cc(Cl)cc1F (stereo not shown) [compound 110] |  |  |  |  | 0* % | 100* % | 0* % | 96* %
